The values that follow come from publication PMC9284540 (Journal of Molecular Biology, 2022).

Where “and” joins values, the source holds several entries; their conditions need not be identical. Equal entries are not always repeated.

Test [1] concerns the target T1, SARS-CoV-2 MD (Severe acute respiratory syndrome coronavirus 2, UniProt P0DTD1). The test is classed as biochemical.
The target in test [2] is T1, SARS-CoV-2 MD. In kind it is binding.
Test [3] has as its target T2, MAYV MD (Mayaro virus, UniProt Q8QZ73). In kind it is biochemical.
Test [4] deals with T3, CHIKV MD (Chikungunya virus, UniProt Q8JUX6). In kind it is biochemical.
Test [5] has as its target T2, MAYV MD. In kind it is binding.
The target of test [6] is T1, SARS-CoV-2 MD. The test is classed as binding. This is another data set of the same source.
For test [7], the target named is T3, CHIKV MD. The test is described as follows: biochemical. In kind it is binding.
In test [8] the target is T3, CHIKV MD. The test is classed as binding.
A further test concerns the target hPARP14 MD2 (Homo sapiens, UniProt Q460N5). The test is described as follows: biochemical. The test is classed as binding.
The test system of another test is viral MDs. In kind it is biochemical.

T2 sequence (Q8QZ73 1335-1493 limits assumed): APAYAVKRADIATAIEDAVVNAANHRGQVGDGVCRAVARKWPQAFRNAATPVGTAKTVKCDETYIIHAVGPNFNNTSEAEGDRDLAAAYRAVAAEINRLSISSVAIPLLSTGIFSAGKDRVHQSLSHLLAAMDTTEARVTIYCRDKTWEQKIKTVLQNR
T3 sequence (Q8JUX6 1334-1493 limits assumed): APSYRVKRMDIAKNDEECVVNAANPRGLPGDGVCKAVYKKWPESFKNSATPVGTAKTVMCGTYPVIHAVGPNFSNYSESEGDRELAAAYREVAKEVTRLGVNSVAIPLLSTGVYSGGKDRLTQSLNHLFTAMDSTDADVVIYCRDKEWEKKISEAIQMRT
Sequence of hPARP14 MD2 (Q460N5 999-1191): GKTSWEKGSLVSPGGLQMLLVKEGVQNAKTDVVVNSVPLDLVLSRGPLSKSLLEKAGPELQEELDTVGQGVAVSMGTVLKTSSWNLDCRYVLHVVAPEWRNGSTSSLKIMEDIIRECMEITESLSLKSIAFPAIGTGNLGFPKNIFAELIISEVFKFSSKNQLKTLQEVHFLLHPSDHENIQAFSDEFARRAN

In the case of `CCC(CC)COC(=O)[C@H](C)N[P@](=O)(OC[C@H]1O[C@@](C#N)(c2ccc3c(N)ncnn23)[C@H](O)[C@@H]1O)Oc1ccccc1` [Remdesivir], at SARS-CoV-2 MD [1], the “Initial substrate decay rate k” value was 0.157 ± 0.012 µM/min and 0.169 ± 0.002 µM/min.

As for `N#C[C@@]1(c2ccc3c(N)ncnn23)O[C@H](CO)[C@@H](O)[C@H]1O` [GS-441524], the “exchange regime on NMR time scale between free and bound form” value on SARS-CoV-2 MD [2] is “slow exchange regime”. Also, the “Initial substrate decay rate k” value on MAYV MD [3] is 0.190 ± 0.002 µM/min and 0.153 ± 0.003 µM/min; at SARS-CoV-2 MD [1], 0.121 ± 0.002 µM/min and 0.075 ± 0.003 µM/min; at CHIKV MD [4] it was 0.179 ± 0.003 µM/min. Moreover, the figures for the “reduction of the k value” on SARS-CoV-2 MD [1] and in the test with viral MDs were 60% and 15–32%, respectively. Moreover, the “exchange regime on NMR time scale” value was “fast and intermediate exchange regime” at MAYV MD [5]; “fast and intermediate exchange regime” at CHIKV MD [8]. Further, the “-T*ΔS” value on SARS-CoV-2 MD [6] was -1.55 kcal/mol. The same molecule returned a ΔH at SARS-CoV-2 MD [6] of -5.25 ± 0.13 kcal/mol. At SARS-CoV-2 MD [6], the ΔS result was “+5.2 cal/mol K-1”. Further, the Kd is around 100 µM on CHIKV MD [7] and around 250 µM at hPARP14 MD2.

Consider `Nc1ncnc2c1ncn2[C@@H]1O[C@H](CO)[C@@H](O)[C@H]1O` [Adenosine], for which the “exchange regime on NMR time scale between free and bound form” value on SARS-CoV-2 MD [2] is on record as “fast exchange regime”.

What is called Kd is a measure of binding affinity in units of concentration. Read a high Kd as weaker binding.
